Publication PMC4160273 (Journal of the American Chemical Society, 2014)
Read-outs that look alike come from different tables or passages of the source. Each block holds one compound with its values, some of them ahead of it.

Key:
[1] = thiol, cited from earlier work
RSK2 CTD = RSK2 CTD (Mus musculus, UniProt P18654); details: after 4 hours, guanidine
endogenous RSK1 and RSK2 = assay: RSK1/2 occupancy in MDA-MB-231 cells by competitive labeling with BODIPY-FMK; format: cell-based; details: 0.1 and 1.0 μM, 2 h

SMILES: OCCS [BME, β-mercaptoethanol]
pKa ([1]; ref [34]): 9.6

% dissociation / recovered from RSK2 after unfolding (RSK2 CTD): ~ 2%
SMILES: COc1cc(-c2n[nH]c3ccc(C=C(C#N)n4cccn4)cc23)cc(OC)c1OC [S3]

SMILES: Cc1ccc(-c2c(C=C(C#N)c3ccncc3)n(CCCO)c3ncnc(N)c23)cc1 [compound 17]
Labeling of RSK1/2 by BODIPY-FMK in pretreated cells (endogenous RSK1 and RSK2): less effective

SMILES: NCCS [cysteamine]
pKa ([1]; ref [36]): 8.4
